# Target: Acetylcholinesterase (Electrophorus electricus, UniProt O42275)
# Assay: Inhibition of electric eel AChE using […] measured every sec for 2 mins by Ellman's method
# Sequence of Acetylcholinesterase (O42275 whole entry): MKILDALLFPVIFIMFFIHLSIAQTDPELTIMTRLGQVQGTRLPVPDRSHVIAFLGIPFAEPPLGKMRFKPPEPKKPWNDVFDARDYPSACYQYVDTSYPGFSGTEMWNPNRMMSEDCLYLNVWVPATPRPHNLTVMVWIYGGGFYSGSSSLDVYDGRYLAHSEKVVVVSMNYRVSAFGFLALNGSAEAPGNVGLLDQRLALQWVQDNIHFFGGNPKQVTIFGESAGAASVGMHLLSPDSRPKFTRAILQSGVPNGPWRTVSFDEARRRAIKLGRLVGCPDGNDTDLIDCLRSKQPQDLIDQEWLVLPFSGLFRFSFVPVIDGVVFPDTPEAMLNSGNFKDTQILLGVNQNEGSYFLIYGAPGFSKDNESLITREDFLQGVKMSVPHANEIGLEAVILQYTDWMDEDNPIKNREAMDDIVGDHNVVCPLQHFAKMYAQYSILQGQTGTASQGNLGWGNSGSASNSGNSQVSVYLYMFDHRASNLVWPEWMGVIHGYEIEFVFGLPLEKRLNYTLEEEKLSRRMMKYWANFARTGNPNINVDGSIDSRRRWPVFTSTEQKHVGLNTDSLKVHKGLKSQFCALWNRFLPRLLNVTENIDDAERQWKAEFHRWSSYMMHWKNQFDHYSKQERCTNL
row,SMILES,IC50 [µM]
1,COc1cc2c(cc1OC)C(=O)C1(C2)C(c2ccncc2)C2CSCN2C12C(=O)Nc1ccc([N+](=O)[O-])cc12 (stereo not given),0.11
2,COc1ccc(C2C3CSCN3C3(C(=O)Nc4ccccc43)C23Cc2cc(OC)c(OC)cc2C3=O)cc1OC (stereo not given),6.2
3,COc1cc2c(cc1OC)C(=O)C1(C2)C(c2ccc(F)cc2)C2CSCN2C12C(=O)Nc1ccc(Cl)cc12 (stereo not given),1.56
4,COc1cc2c(cc1OC)C(=O)C1(C2)C(c2ccc(F)cc2)C2CSCN2C12C(=O)Nc1ccccc12 (stereo not given),1.12
5,COc1ccc(C2C3CSCN3C3(C(=O)Nc4ccc([N+](=O)[O-])cc43)C23Cc2cc(OC)c(OC)cc2C3=O)cc1OC (stereo not given),2.1
6,COc1cc2c(cc1OC)C(=O)C1(C2)C(c2ccccc2)C2CSCN2C12C(=O)Nc1ccc([N+](=O)[O-])cc12 (stereo not given),3.16
7,COc1ccc(C2C3CSCN3C3(C(=O)Nc4ccc(Cl)cc43)C23Cc2cc(OC)c(OC)cc2C3=O)cc1OC (stereo not given),2.24
8,COc1cc2c(cc1OC)C(=O)C1(C2)C(c2ccccc2Cl)C2CSCN2C12C(=O)Nc1ccc(Cl)cc12 (stereo not given),3.28
9,COc1cc2c(cc1OC)C(=O)C1(C2)C(c2ccccc2)C2CSCN2C12C(=O)Nc1ccccc12 (stereo not given),5.8
10,COc1cc2c(cc1OC)C(=O)C1(C2)C(c2ccncc2)C2CSCN2C12C(=O)Nc1ccccc12 (stereo not given),0.48
11,COc1cc2c(cc1OC)C(=O)C1(C2)C(c2ccccc2)C2CSCN2C12C(=O)Nc1ccc(Cl)cc12 (stereo not given),2.6
12,COc1cc2c(cc1OC)C(=O)C1(C2)C(c2ccncc2)C2CSCN2C12C(=O)Nc1ccc(Cl)cc12 (stereo not given),0.34
13,COc1cc2c(cc1OC)C(=O)C1(C2)C(c2ccccc2Cl)C2CSCN2C12C(=O)Nc1ccc([N+](=O)[O-])cc12 (stereo not given),2.12
14,COc1cc2c(cc1OC)C(=O)C1(C2)C(c2ccc(F)cc2)C2CSCN2C12C(=O)Nc1ccc([N+](=O)[O-])cc12 (stereo not given),1.16
15,COc1cc2c(cc1OC)C(=O)C1(C2)C(c2ccccc2Cl)C2CSCN2C12C(=O)Nc1ccccc12 (stereo not given),8.32
